Drawing on ChEMBL document CHEMBL1147827, “A pyrimidine-pyrazolone nucleoside chimera with potent in vitro anti-orthopoxvirus activity” (Bioorg Med Chem Lett, 2006), this text covers EC50 for one compound.

The EC50 is the midpoint of the concentration-response curve.

This assay concerns Vaccinia virus. Put plainly: Antiviral activity against Vaccinia virus Copenhagen in HFF cells assessed as reduction in cytopathogenicity. The assay is classed as functional, organism-based. Particulars: Orthopoxvirus vaccinia. (Cytopathic effects are the visible damage that an infection or toxin causes in cultured cells.)

On to `CC(=O)OC[C@H]1O[C@@H](n2cc(/C=C3\C(=O)N(c4ccccc4)N=C3C)c(=O)[nH]c2=O)C[C@@H]1OC(C)=O`, for which the EC50 was determined as 32 µM.
